Our source for the pest or weed control values is patent publication US20180002320A1, “USE OF MACROCYCLIC PICOLINAMIDES AS FUNGICIDES” (DOW AGROSCIENCES LLC, priority 2014, published 2018).

Assay [1] relates to Puccinia triticina. Nature of the assay: Wheat Brown Rust (PUCCRT) fungicidal activity. It is filed as in vivo. The settings on record: Low Volume (121.5 g/H). As to the method:
Technical grades of materials were dissolved in acetone, which were then mixed with nine volumes of H2O containing 110 ppm Triton X-100. The fungicide solutions were applied onto wheat seedlings using an automated booth sprayer to run-off. All sprayed plants were allowed to air dry prior to further handling. All fungicides were evaluated using the aforementioned method for their activity vs. all target diseases, unless stated otherwise. Wheat leaf blotch and brown rust activity were also evaluated using track spray applications, in which case the fungicides were formulated as EC formulations, containing 0.1% Trycol 5941 in the spray solutions. Wheat plants (variety Yuma) were grown from seed in a greenhouse in 50% mineral soil/50% soil-less Metro mix until the first leaf was fully emerged, with 7-10 seedlings per pot. These plants were inoculated with an aqueous spore suspension of Puccinia triticina either prior to or after fungicide treatments. After inoculation the plants were kept in a dark dew room at 22° C. with 100% relative humidity overnight to permit spores to germinate and infect the leaf. The plants were then transferred to a greenhouse set at 24° C. for disease to develop. Fungicide formulation, application and disease assessment followed the procedures as described in the Example A.

For assay [2], the system named is Zymoseptoria tritici. Nature of the assay: Leaf Blotch of Wheat (SEPTTR) fungicidal activity. It is filed as in vivo. As to conditions: Low Volume (121.5 g/H). How it is done:
Technical grades of materials were dissolved in acetone, which were then mixed with nine volumes of H2O containing 110 ppm Triton X-100. The fungicide solutions were applied onto wheat seedlings using an automated booth sprayer to run-off. All sprayed plants were allowed to air dry prior to further handling. All fungicides were evaluated using the aforementioned method for their activity vs. all target diseases, unless stated otherwise. Wheat leaf blotch and brown rust activity were also evaluated using track spray applications, in which case the fungicides were formulated as EC formulations, containing 0.1% Trycol 5941 in the spray solutions. Wheat plants (variety Yuma) were grown from seed in a greenhouse in 50% mineral soil/50% soil-less Metro mix until the first leaf was fully emerged, with 7-10 seedlings per pot. These plants were inoculated with an aqueous spore suspension of Zymoseptoria tritici either prior to or after fungicide treatments. After inoculation the plants were kept in 100% relative humidity (one day in a dark dew chamber followed by two to three days in a lighted dew chamber at 20° C.) to permit spores to germinate and infect the leaf. The plants were then transferred to a greenhouse set at 20° C. for disease to develop. When disease symptoms were fully expressed on the 1st leaves of untreated plants, infection levels were assessed on a scale of 0 to 100 percent disease severity. Percent disease control was calculated using the ratio of disease severity on treated plants relative to untreated plants.

Where [3] appears, read: 24 h, 1 Day Protectant, read-out: PUCCRT 1DP disease control.
Setting [4] is: 72 h, 3 Day Curative, read-out: PUCCRT 3DC disease control.
Where [5] appears, read: 24 h, 1 Day Protectant, read-out: SEPTTR 1DP disease control.
[6] abbreviates: 72 h, 3 Day Curative, read-out: SEPTTR 3DC disease control.

Like-named read-outs stand apart in the source and are kept apart here. A value given as a limit tells only on which side of the number the result lay.

Turning to `COc1ccnc(C(=O)N[C@H]2CCOC[C@H](Oc3ccccc3)[C@@H](Oc3ccccc3)[C@H](C)OC2=O)c1OC(C)=O` [Compound 47], the pest or weed control at 121.5 g/ha in assay [1] (setting [3]), in assay [1] (setting [4]), in assay [2] (setting [5]) and in assay [2] (setting [6]) was > 80% throughout.

In the case of `COc1ccnc(C(=O)N[C@H]2CCOC[C@H](OC)[C@@H](Oc3ccccc3)[C@H](C)OC2=O)c1OC(C)=O` [Compound 48], the pest or weed control at 121.5 g/ha in assay [1] (setting [3]), in assay [1] (setting [4]), in assay [2] (setting [5]) and in assay [2] (setting [6]) was > 80% each time.

On to `CC(=O)OCOc1cccnc1C(=O)N[C@H]1CCCC[C@H](CC2CCCC2)[C@@H](Oc2ccccc2)[C@H](C)OC1=O` [Compound 49], for which the pest or weed control at 121.5 g/ha in assay [1] (setting [3]) is > 80%; in assay [1] (setting [4]) it was < 80%; in assay [2] (setting [5]), < 80%.

`COc1ccnc(C(=O)N[C@H]2CCCC[C@H](CC3CCCC3)[C@@H](Oc3ccccc3)[C@H](C)OC2=O)c1OCOC(C)=O` [Compound 50]: the pest or weed control at 121.5 g/ha was > 80% in assay [1] (setting [3]), > 80% in assay [1] (setting [4]), > 80% in assay [2] (setting [5]) and < 80% in assay [2] (setting [6]).

`CCOCC(=O)OCOc1c(OC)ccnc1C(=O)N[C@H]1CCCC[C@H](CC2CCCC2)[C@@H](Oc2ccccc2)[C@H](C)OC1=O` [Compound 51, ((2-(((3S,8R,9R,10S)-8-(cyclopentylmethyl)-10-methyl-2-oxo-9-phenoxyoxecan-3-yl)carbamoyl)-4-methoxypyridin-3-yl)oxy)methyl 2-ethoxyacetate]: the pest or weed control at 121.5 g/ha was > 80% in assay [1] (setting [3]), < 80% in assay [1] (setting [4]) and > 80% in assay [2] (setting [5]).

For `COc1ccnc(C(=O)N[C@H]2CCCC[C@H](CC3CCCC3)[C@@H](Oc3ccccc3)[C@H](C)OC2=O)c1OC(C)=O` [Compound 52], the pest or weed control at 121.5 g/ha in assay [1] (setting [3]) was > 80%; in assay [1] (setting [4]), < 80%; in assay [2] (setting [5]) it was > 80%.

Regarding `C=CCO[C@@H]1[C@@H](CC2CCCC2)CCCC[C@H](NC(=O)c2nccc(OC)c2OCOC(C)=O)C(=O)O[C@H]1C` [Compound 53], the pest or weed control at 121.5 g/ha in assay [1] (setting [3]) and in assay [2] (setting [6]) was < 80% each time.

With `COc1ccnc(C(=O)N[C@H]2CCCC[C@H](CC3CCCC3)[C@@H](OC(=O)C(C)C)[C@H](C)OC2=O)c1OCOC(C)=O` [Compound 54], the pest or weed control at 121.5 g/ha in assay [1] (setting [3]) was > 80%; in assay [1] (setting [4]) it was < 80%; in assay [2] (setting [5]), > 80%.

For the compound `CCOCC(=O)OCOc1c(OC)ccnc1C(=O)N[C@H]1CCCC[C@H](CC2CCCC2)[C@@H](OC(=O)C(C)C)[C@H](C)OC1=O` [Compound 55], the pest or weed control at 121.5 g/ha in assay [1] (setting [3]) was > 80%; in assay [1] (setting [4]), < 80%; in assay [2] (setting [5]) it was < 80%; in assay [2] (setting [6]), < 80%.

On to `COc1ccnc(C(=O)N[C@H]2CCCC[C@H](CC3CCCC3)[C@@H](OC(=O)C(C)C)[C@H](C)OC2=O)c1OC(C)=O` [Compound 56, (2S,3R,4R,9S)-9-(3-acetoxy-4-methoxypicolinamido)-4-(cyclopentylmethyl)-2-methyl-10-oxooxecan-3-yl isobutyrate], for which the pest or weed control at 121.5 g/ha is > 80% in assay [1] (setting [3]), < 80% in assay [1] (setting [4]), > 80% in assay [2] (setting [5]) and < 80% in assay [2] (setting [6]).

For `CCCO[C@@H]1[C@@H](CC2CCCC2)CCCC[C@H](NC(=O)c2nccc(OC)c2OCOC(C)=O)C(=O)O[C@H]1C` [Compound 57], the results for the pest or weed control at 121.5 g/ha in assay [1] (setting [3]), in assay [1] (setting [4]) and in assay [2] (setting [5]) were > 80%, < 80% and < 80%, respectively.

Consider `CCCO[C@@H]1[C@@H](CC2CCCC2)CCCC[C@H](NC(=O)c2nccc(OC)c2OC(C)=O)C(=O)O[C@H]1C` [Compound 58], for which the pest or weed control at 121.5 g/ha in assay [1] (setting [3]) was > 80%; in assay [1] (setting [4]) it was < 80%; in assay [2] (setting [5]), < 80%; in assay [2] (setting [6]) it was < 80%.

As for `COc1ccnc(C(=O)N[C@H]2CCCC[C@H](CC3CCCC3)[C@@H](OC)[C@H](C)OC2=O)c1OC(C)=O` [Compound 59], the pest or weed control at 121.5 g/ha in assay [1] (setting [3]) was > 80%; in assay [1] (setting [4]), > 80%; in assay [2] (setting [5]) it was < 80%.

For the compound `COc1ccnc(C(=O)N[C@H]2CCCC[C@H](Cc3ccccc3)[C@@H](OC(=O)C(C)C)[C@H](C)OC2=O)c1OCOC(C)=O` [Compound 60], the pest or weed control at 121.5 g/ha in assay [1] (setting [3]), in assay [1] (setting [4]), in assay [2] (setting [5]) and in assay [2] (setting [6]) was > 80% throughout.

On to `COc1ccnc(C(=O)N[C@H]2CCCC[C@H](CC3CCCC3)[C@@H](OC)[C@H](C)OC2=O)c1OCOC(C)=O` [Compound 61], for which the pest or weed control at 121.5 g/ha is > 80% in assay [1] (setting [3]), > 80% in assay [1] (setting [4]), < 80% in assay [2] (setting [5]) and < 80% in assay [2] (setting [6]).

For the compound `COc1ccnc(C(=O)N[C@H]2CCCC[C@H](Cc3ccccc3)[C@@H](Oc3ccccc3)[C@H](C)OC2=O)c1OCOC(C)=O` [Compound 62], the pest or weed control at 121.5 g/ha in assay [1] (setting [3]) is > 80%; in assay [1] (setting [4]), < 80%; in assay [2] (setting [5]), > 80%; in assay [2] (setting [6]), > 80%.

For `COc1ccnc(C(=O)N[C@H]2CCCC[C@H](Cc3ccccc3)[C@@H](Oc3ccccc3)[C@H](C)OC2=O)c1OC(C)=O` [Compound 64], the pest or weed control at 121.5 g/ha in assay [1] (setting [3]) is > 80%; in assay [1] (setting [4]), < 80%; in assay [2] (setting [5]) it was > 80%; in assay [2] (setting [6]), > 80%.

For `COc1ccc(C[C@H]2CCOC[C@H](NC(=O)c3nccc(OC)c3OC(C)=O)C(=O)O[C@@H](C)[C@@H]2Oc2ccccc2)cc1` [Compound 65], the pest or weed control at 121.5 g/ha in assay [1] (setting [3]) was > 80%; in assay [1] (setting [4]), < 80%; in assay [2] (setting [5]), > 80%; in assay [2] (setting [6]), < 80%.

In the case of `COc1ccc(C[C@H]2CCOC[C@H](NC(=O)c3nccc(OC)c3OCOC(C)=O)C(=O)O[C@@H](C)[C@@H]2Oc2ccccc2)cc1` [Compound 66], the pest or weed control at 121.5 g/ha in assay [1] (setting [3]) is > 80%; in assay [1] (setting [4]), < 80%; in assay [2] (setting [5]), > 80%; in assay [2] (setting [6]) it was > 80%.

Consider `COc1ccc(C[C@H]2CCOC[C@H](NC(=O)c3nccc(OC)c3OCOC(=O)C(C)C)C(=O)O[C@@H](C)[C@@H]2Oc2ccccc2)cc1` [Compound 67, ((4-methoxy-2-(((3S,8S,9R,10S)-8-(4-methoxybenzyl)-10-methyl-2-oxo-9-phenoxy-1,5-dioxecan-3-yl)carbamoyl)pyridin-3-yl)oxy)methyl isobutyrate], for which the pest or weed control at 121.5 g/ha in assay [1] (setting [3]) was > 80%; in assay [1] (setting [4]) it was < 80%; in assay [2] (setting [5]) it was > 80%; in assay [2] (setting [6]), < 80%.

Turning to `COc1ccc(C[C@H]2CCOC[C@H](NC(=O)c3nccc(OC)c3OC(=O)C(C)C)C(=O)O[C@@H](C)[C@@H]2Oc2ccccc2)cc1` [Compound 68], the pest or weed control at 121.5 g/ha in assay [1] (setting [3]) is > 80%; in assay [2] (setting [5]), < 80%; in assay [2] (setting [6]) it was < 80%.

Regarding `CC[C@H]1CCOC[C@H](NC(=O)c2nccc(OC)c2OCOC(C)=O)C(=O)O[C@@H](C)[C@@H]1Oc1ccccc1` [Compound 69], the pest or weed control at 121.5 g/ha in assay [1] (setting [3]), in assay [1] (setting [4]), in assay [2] (setting [5]) and in assay [2] (setting [6]) was > 80% throughout.

In the case of `CC[C@H]1CCOC[C@H](NC(=O)c2nccc(OC)c2OCOC(C)=O)C(=O)O[C@@H](C)[C@@H]1OCC(C)C` [Compound 70], the pest or weed control at 121.5 g/ha in assay [1] (setting [3]) was > 80%; in assay [1] (setting [4]) it was > 80%; in assay [2] (setting [5]) it was > 80%; in assay [2] (setting [6]), < 80%.
